Laboratory results taken from patent US8383647B2, “Quinoline derivative” (Takeda Pharmaceutical Company Limited, priority 2009, dated 2013).
Values joined by “and” are separate entries in the source; they are usually repeats but may differ in a detail not shown here. Equal entries are not always repeated. Marks after values point to notes of the source that are not given here.

What was measured:
HERG = target: T1, HERG (Homo sapiens, UniProt Q12809); experiment: Evaluation of HERG inhibitory activity (whole-cell patch clamp, HERG.T.HEK cells); assay type: cell-based; details: peak tail current
T1 construct: host or cells: HERG.T.HEK (HEK cells, Geneticin-selected)
Text: MEM medium, MEM nonessential amino acid solution, sodium pyruvate solution and G418 sulfate solution (Geneticin) were purchased from Invitrogen Corporation (Carlsbad, Calif.). Bovine serum albumin (BSA, Fatty Acid Free) was a product of Wako Pure Chemical Industries, Ltd. (Osaka, Japan). Fetal bovine serum (FCS) was a product of Trau Scientific Ltd. (Melbourne, Australia).
As HERG expression cell HERG.T.HEK, the cell obtained from Wisconsin ALUMNI Research Foundation was used. HERG.T.HEK was maintained and passaged at 37° C. in the presence of 5% CO2 using an MEM medium containing 10% FCS, 1 mM MEM nonessential amino acid, 1 mM sodium pyruvate and 500 μg/ml Geneticin.
80-90% confluent cells were collected by a trypsin treatment and plated on an IVF dish (Falcon, Franklin Lakes, N.J.). After 2-3 hr, cells were adhered to a glass electrode (resistance value 2-3 MΩ) filled with an electrode internal fluid (7 mM NaCl, 130 mM KCl, 1 mM MgCl2, 5 mM HEPES, 5 mM EGTA, 5 mM ATP-Na: pH 7.2) while perfusing with an extracellular fluid (137 mM NaCl, 4 mM KCl, 1 mM MgCl2, 1.8 mM CaCl2, 10 mM HEPES, 11 mM dextrose: pH 7.4), using a patch clamp amplifier AXOPATCH 200B (Axon instruments, Foster City, Calif.), whereby formation of whole-cell configuration and stimulation by voltage clamp protocol were performed (holding potential −75 mV, primary voltage 10 mV: 0.5 sec, secondary voltage −40 mV: 0.5 sec, stimulation frequency 5 sec (Example 31 and Example 50) or 10 sec (Comparative Example 1 and Comparative Example 2). A preliminary stimulation was applied and the HERG electric current value (peak tail current) was measured when the electric current waveform was stabilized.
For measurement of the HERG electric current with addition of the test compound, the cells were first perfused with the extracellular fluid and, when the waveform was stabilized, the cells were perfused with an extracellular fluid containing 10 μm of a test compound. When the electric current waveform was stabilized under respective perfuse conditions, the HERG electric current was measured.
The HERG electric current inhibitory rate (%) of the test compound was calculated with the HERG electric current value without addition of the test compound as 100%.

HepG2 cells = experiment: Evaluation of PLsis (NBD-PE uptake); assay type: cell-based; details: 24 hr exposure, relative to 10 μM Amiodarone, maximum value per unit concentration
Protocol: DMEM medium, L-glutamine, penicillin-streptomycin, pyruvic acid, and N-(7-nitrobenz-2-oxa-1,3-diazol-4-yl)-1,2-hexadecanoyl-sn-glycero-3-phosphoethanolamine triethylammonium salt (NBD-PE) were purchased from Invitrogen Corporation. As bovine serum albumin (BSA), a product of Thermo Trace Ltd. (Melbourne, Australia) was used, and as Amiodarone, a product of ICN (Costa Mesa, Calif.) was used. A test compound was used in the form of a 10 mM DMSO solution.
FBS was added at a final concentration of 5 vol % to DMEM medium supplemented with L-glutamine, pyruvic acid and penicillin-streptomycin and subjected to the experiment. Culture was performed using 5% carbon dioxide gas-95% air as a gas phase in a CO2 incubator at 37° C. HepG2 cells were suspended in a culture medium at 50×10^4 cells/mL, plated in a 96 well plate at 50 μL/well and precultured for 24 hr. After preculture, the culture medium was removed, a culture medium containing 60 μm NBD-PE was added at 50 μL/well, and a culture medium containing 0, 6 μM or 20 μM test compounds were each added at 50 μL/well to HepG2 cells, and the cells were cultured for 24 hr. As a positive control, Amiodarone was used at a final concentration of 10 μM.
After exposure to the test compound for 24 hr, the fluorescence intensity (Ex. 485 nm, Em. 538 nm) of NBD-PE uptaken by the cells was measured by a fluorometer. The measurement value with addition of 0 μM test compound solution was subtracted as a blank, a relative value to the measurement value with addition of 10 μm Amiodarone was calculated, and the maximum value per unit concentration of the test compound was obtained as a phospholipidosis (PLsis) induction potential.

[1] = system: Male F344/Jcl rats fed on high-fat diet; experiment: Evaluation of anorectic effect using male F344/Jcl rats fed on high-fat diet; assay type: in vivo; details: 10 mg/kg by gavage, two administrations; food intake from initial administration to 48 hr; relative to control group; obese rat model
Protocol: Male F344/Jcl rats (42-week-old) loaded with a high-fat diet (Research Diets: D12451) from 5 weeks of age were used. From 2 weeks before the start of experiment, the rats were independently raised, a powder high-fat diet (Research Diets: D12451M) was given, tap water (0.5 mL) was administered for acclimation, and thereby the rats were habituated. The food intake from 14:00 the day before the start of experiment to 9:00 the next day was measured, and the rats were grouped based on the food intake and the body weight of the previous day as indices. On the day of the start of experiment and the next day at 16:00, 0.5% methylcellulose solution was administered by gavage to the control group, and 0.5% methylcellulose suspension (10 mg/kg) of the compound was administered by gavage to the compound administration group at 2 mL/kg (6 per group for both control group and compound administration group). The food intake from the initial administration to 48 hr later was measured. The food intake inhibition rate of each compound administration group to the control group was calculated.

rat SLC-1 = rat SLC-1 (Rattus norvegicus, UniProt P97639); experiment: MCH receptor antagonistic activity (inhibitory activity, Experimental Example 1); assay type: biochemical
human SLC-1 = human SLC-1 (Homo sapiens, UniProt Q99705); experiment: as above; assay type: biochemical
Chain of human SLC-1 (Q99705 whole entry): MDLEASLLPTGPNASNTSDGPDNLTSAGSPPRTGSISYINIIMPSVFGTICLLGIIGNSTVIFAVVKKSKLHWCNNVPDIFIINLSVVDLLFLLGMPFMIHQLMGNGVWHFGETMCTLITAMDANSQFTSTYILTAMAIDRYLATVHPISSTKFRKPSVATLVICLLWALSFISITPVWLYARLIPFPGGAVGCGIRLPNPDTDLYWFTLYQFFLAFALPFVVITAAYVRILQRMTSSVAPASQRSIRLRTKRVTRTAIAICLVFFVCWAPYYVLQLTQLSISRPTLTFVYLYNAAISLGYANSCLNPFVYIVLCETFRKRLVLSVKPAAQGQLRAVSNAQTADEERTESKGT

T1 sequence (Q12809 whole entry): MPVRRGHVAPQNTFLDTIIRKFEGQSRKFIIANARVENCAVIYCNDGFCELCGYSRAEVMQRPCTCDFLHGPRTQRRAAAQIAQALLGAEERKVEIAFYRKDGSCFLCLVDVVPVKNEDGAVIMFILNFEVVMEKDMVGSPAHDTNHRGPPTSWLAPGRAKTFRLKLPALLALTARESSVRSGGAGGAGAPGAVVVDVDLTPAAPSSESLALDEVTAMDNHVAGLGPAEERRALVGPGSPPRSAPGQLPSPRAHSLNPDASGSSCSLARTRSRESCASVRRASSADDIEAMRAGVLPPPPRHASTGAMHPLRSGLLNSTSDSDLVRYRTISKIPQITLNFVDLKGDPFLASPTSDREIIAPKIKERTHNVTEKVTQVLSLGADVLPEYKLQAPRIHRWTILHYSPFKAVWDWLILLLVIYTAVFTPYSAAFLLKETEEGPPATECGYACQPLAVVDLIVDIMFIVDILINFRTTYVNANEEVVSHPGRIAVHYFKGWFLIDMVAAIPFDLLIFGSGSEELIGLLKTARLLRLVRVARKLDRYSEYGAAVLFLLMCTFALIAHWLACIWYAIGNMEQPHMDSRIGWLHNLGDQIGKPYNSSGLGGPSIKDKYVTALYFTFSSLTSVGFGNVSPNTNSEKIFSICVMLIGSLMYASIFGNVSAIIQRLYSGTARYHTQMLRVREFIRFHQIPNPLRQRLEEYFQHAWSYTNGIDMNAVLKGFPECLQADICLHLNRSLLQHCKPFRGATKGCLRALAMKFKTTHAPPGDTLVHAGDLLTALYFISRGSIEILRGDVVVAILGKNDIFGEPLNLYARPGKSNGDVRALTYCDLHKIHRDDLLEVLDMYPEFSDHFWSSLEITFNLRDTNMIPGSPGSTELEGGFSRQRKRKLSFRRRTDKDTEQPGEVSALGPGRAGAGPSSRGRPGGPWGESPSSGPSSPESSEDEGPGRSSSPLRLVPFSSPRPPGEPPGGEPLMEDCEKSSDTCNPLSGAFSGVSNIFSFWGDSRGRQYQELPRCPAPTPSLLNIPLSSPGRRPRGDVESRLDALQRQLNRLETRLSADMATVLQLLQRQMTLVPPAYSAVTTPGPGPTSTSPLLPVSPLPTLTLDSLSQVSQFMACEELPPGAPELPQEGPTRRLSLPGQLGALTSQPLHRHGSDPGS
Chain of rat SLC-1 (P97639 whole entry): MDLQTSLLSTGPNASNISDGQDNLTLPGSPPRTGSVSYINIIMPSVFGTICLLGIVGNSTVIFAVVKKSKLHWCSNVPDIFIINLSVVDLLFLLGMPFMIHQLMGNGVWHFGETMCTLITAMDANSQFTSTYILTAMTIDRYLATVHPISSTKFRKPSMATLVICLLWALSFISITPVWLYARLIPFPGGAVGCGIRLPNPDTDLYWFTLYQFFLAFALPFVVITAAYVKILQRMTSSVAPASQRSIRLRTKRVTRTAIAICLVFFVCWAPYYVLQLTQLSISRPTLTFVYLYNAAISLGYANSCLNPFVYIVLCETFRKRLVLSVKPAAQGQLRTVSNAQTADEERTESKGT

Row | SMILES | PLsis induction potential (HepG2 cells) | melting point | IC50 (rat SLC-1) [nM] | IC50 (human SLC-1) [nM] | HERG electric current inhibitory rate (%) of 10 μM compound (HERG) [%] | food intake inhibition rate (%) [1]
1 | Cc1c(NC(=O)c2ccc(OCC3CC3)cc2)ccc2cc(CNC3CCC(C)(O)CC3)cnc12 (stereo not drawn) [Com. Ex. 2, 4-(cyclopropylmethoxy)-N-[3-[[(trans-4-hydroxy-4-methylcyclohexyl)amino]methyl]-8-methylquinolin-7-yl]benzamide, reference compound] | 27.8 |  |  |  | 44.9 | 
2 | Cc1c(NC(=O)c2ccc(OCC3CC3)cc2)ccc2cc(CN[C@H]3CC[C@H](O)CC3)cnc12 [Com. Ex. 1, 4-(cyclopropylmethoxy)-N-[3-[[(trans-4-hydroxycyclohexyl)amino]methyl]-8-methylquinolin-7-yl]benzamide, reference compound] | 23.5 |  |  |  | 58 | 
3 | Cc1c(NC(=O)c2ccc(OC[C@@H]3CCCO3)cc2)ccc2cc(CN[C@H]3CC[C@H](O)CC3)cnc12 [Example 48, N-(3-{[(trans-4-hydroxycyclohexyl)amino]methyl}-8-methylquinolin-7-yl)-4-[(2S)-tetrahydrofuran-2-ylmethoxy]benzamide] |  | 183 to 184 °C | 8.3 | 9.1 |  | 
4 | CCNCc1cnc2c(C)c(NC(=O)c3ccc(OC[C@@H]4CCCO4)cc3)ccc2c1 [Example 35, N-{3-[(ethylamino)methyl]-8-methylquinolin-7-yl}-4-[(2S)-tetrahydrofuran-2-ylmethoxy]benzamide] |  | 149 to 151 °C | 17 | 7.1 |  | 
5 | CC[C@@H](C)NCc1cnc2c(C)c(NC(=O)c3ccc(OC[C@@H]4CCCO4)cc3)ccc2c1 [Example 55, N-[8-methyl-3-({[(1R)-1-methylpropyl]amino}methyl)quinolin-7-yl]-4-[(2S)-tetrahydrofuran-2-ylmethoxy]benzamide] |  | 118 to 119 °C | 8.8 | 6.8 |  | 

Second part, led by results:

Row | PLsis induction potential (HepG2 cells) | melting point | IC50 (rat SLC-1) [nM] | IC50 (human SLC-1) [nM] | SMILES | HERG electric current inhibitory rate (%) of 10 μM compound (HERG) [%] | food intake inhibition rate (%) [1]
6 | 1.7 | 158 to 159 °C | 4.3 | 3.1 | Cc1c(NC(=O)c2ccc(OC[C@@H]3CCCO3)cc2)ccc2cc(CNC3CCOCC3)cnc12 [Example 31, N-{8-methyl-3-[(tetrahydro-2H-pyran-4-ylamino)methyl]quinolin-7-yl}-4-[(2S)-tetrahydrofuran-2-ylmethoxy]benzamide] | 9.8 | 24.8*** %
7 |  | 93 to 94 °C | 4.6 | 3.2 | Cc1c(NC(=O)c2ccc(OC[C@@H]3CCCO3)cc2)ccc2cc(CNC[C@@H]3CCCO3)cnc12 [Example 29, N-[8-methyl-3-({[(2S)-tetrahydrofuran-2-ylmethyl]amino}methyl)quinolin-7-yl]-4-[(2S)-tetrahydrofuran-2-ylmethoxy]benzamide] |  | 
8 | 1.4 | 165 °C and 169 °C | 3.9 | 2.9 | Cc1c(NC(=O)c2ccc(OC[C@@H]3CCCO3)cc2)ccc2cc(CN[C@H]3CC[C@](C)(O)CC3)cnc12 [Example 50, N-(3-{[(trans-4-hydroxy-4-methylcyclohexyl)amino]methyl}-8-methylquinolin-7-yl)-4-[(2S)-tetrahydrofuran-2-ylmethoxy]benzamide] | 2.1 | 30.3*** %
9 |  | 157 to 158 °C | 7.9 | 6.8 | Cc1c(NC(=O)c2ccc(OC[C@@H]3CCCO3)cc2)ccc2cc(CN[C@H]3CCCC[C@@H]3O)cnc12 [Example 47, N-[3-({[(1S,2S)-2-hydroxycyclohexyl]amino}methyl)-8-methylquinolin-7-yl]-4-[(2S)-tetrahydrofuran-2-ylmethoxy]benzamide] |  | 
10 |  | 156 to 158 °C | 4.1 | 3 | Cc1c(NC(=O)c2ccc(OC[C@@H]3CCCO3)cc2)ccc2cc(CNCC3CC3)cnc12 [Example 37, N-(3-{[(cyclopropylmethyl)amino]methyl}-8-methylquinolin-7-yl)-4-[(2S)-tetrahydrofuran-2-ylmethoxy]benzamide] |  | 
11 |  | 121 to 122 °C | 5.8 | 3.1 | CCCNCc1cnc2c(C)c(NC(=O)c3ccc(OC[C@@H]4CCCO4)cc3)ccc2c1 [Example 45, N-{8-methyl-3-[(propylamino)methyl]quinolin-7-yl}-4-[(2S)-tetrahydrofuran-2-ylmethoxy]benzamide] |  | 
